Ends that are not written are not given here.
T1: BRPF1 bromodomain (Homo sapiens, UniProt P55201)
T1 sequence (P55201 629-742): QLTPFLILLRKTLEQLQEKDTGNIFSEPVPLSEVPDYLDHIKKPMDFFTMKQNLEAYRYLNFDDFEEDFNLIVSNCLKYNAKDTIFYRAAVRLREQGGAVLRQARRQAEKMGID

T2: Histone H4K8ac peptide (4-17) (Homo sapiens, H4 K8 acetylated)
T2 chain: GKGGKGLGKGGAKR

T3: Histone H3K14ac peptide (8-19) (Homo sapiens)
T3 chain: RKSTGGK(Ac)APRKQ

T4: Histone H4K12ac peptide (4-17) (Homo sapiens)
T4 chain: GKGGKGLGK(Ac)GGAKR

T5: Histone H2AK5ac peptide (1-12) (Homo sapiens)
T5 chain: SGRGK(Ac)QGGKARA


How the values were obtained:
BRPF1 bromodomain [1] = biological target: T1, BRPF1 bromodomain; assay: NMR titration; assay type: binding
BRPF1 bromodomain [2] = biological target: T1, BRPF1 bromodomain; assay: Isothermal titration calorimetry; assay type: binding
[3] = biological target: T2, Histone H4K8ac peptide (4-17); assay: NMR titration
[4] = biological target: T3, Histone H3K14ac peptide (8-19); assay: NMR titration
[5] = biological target: T4, Histone H4K12ac peptide (4-17); assay: NMR titration
[6] = biological target: T5, Histone H2AK5ac peptide (1-12); assay: NMR titration

Kd (BRPF1 bromodomain [2]) | Kd [3] | Kd [4] | Kd [5] | Kd [6] | Molecule | Kd (BRPF1 bromodomain [1])
 |  |  |  |  | CC(=O)NCCCC[C@H](NC(=O)CNC(=O)CNC(=O)[C@H](CCCCN)NC(=O)CN)C(=O)NCC(=O)N[C@@H](CC(C)C)C(=O)NCC(=O)N[C@@H](CCCCN)C(=O)NCC(=O)NCC(=O)N[C@@H](C)C(=O)N[C@@H](CCCCN)C(=O)N[C@@H](CCCNC(=N)N)C(N)=O [H4K8ac (4-17)] | 697 ± 57 µM
86.5 ± 9.1 µM |  |  |  |  | CC(=O)NCCCC[C@H](NC(=O)CNC(=O)[C@H](CC(C)C)NC(=O)CNC(=O)[C@H](CCCCN)NC(=O)CNC(=O)CNC(=O)[C@H](CCCCN)NC(=O)CN)C(=O)NCC(=O)NCC(=O)N[C@@H](C)C(=O)N[C@@H](CCCCN)C(=O)N[C@@H](CCCNC(=N)N)C(N)=O [H4K12ac (4-17)] | 74 ± 18 µM
48.5 ± 1.5 µM |  |  |  |  | SGRGK(Ac)QGGKARA-NH2 [H2AK5ac (1-12)] | 57 ± 4 µM
 | 697 µM | 597 µM | 74 µM | 57 µM | BRPF1 bromodomain 629-742 (protein) QLTPFLILLRKTLEQLQEKDTGNIFSEPVPLSEVPDYLDHIKKPMDFFTMKQNLEAYRYLNFDDFEEDFNLIVSNCLKYNAKDTIFYRAAVRLREQGGAVLRQARRQAEKMGID | 

Molecule | Kd (BRPF1 bromodomain [2]) | Kd [3] | Kd [4] | Kd [5] | Kd [6] | Kd (BRPF1 bromodomain [1])
CC(=O)NCCCC[C@H](NC(=O)CNC(=O)CNC(=O)[C@@H](NC(=O)[C@H](CO)NC(=O)[C@H](CCCCN)NC(=O)[C@@H](N)CCCNC(=N)N)[C@@H](C)O)C(=O)N[C@@H](C)C(=O)N1CCC[C@H]1C(=O)N[C@@H](CCCNC(=N)N)C(=O)N[C@@H](CCCCN)C(=O)N[C@@H](CCC(N)=O)C(N)=O [H3K14ac (8-19)] | 626 ± 27 µM |  |  |  |  | 597 ± 53 µM

— paper PMC3969779 (Journal of molecular biology, 2013)
